Experiments:
TLR4, MD-2, and CD14 = target: T1, TLR4, MD-2, and CD14 (Homo sapiens, UniProt O00206+Q9Y6Y9); test: NF-kB reporter (secreted alkaline phosphatase, QUANTIBlue) assay in HEK 293 cells expressing TLR4, MD-2 and CD14; format: cell-based
T1 construct: host or cells: HEK 293
Experimental: (§1) Compound IX was tested in vitro using HEK 293 cells (InvivoGen) with expression vectors encoding 1) TLR4, MD-2, and CD14, or 2) TLR2 and TLR6 to define compound activity and dependence on TLR4, and to exclude activation of TLR2. These HEK 293 cell lines were further stably transfected with the NF-kB reporter vector pNifty-2 such that alkaline phosphatase is secreted into the growth media upon activation of the TLR signaling pathway. Transfected cell lines were plated at 5×10^4 cells per well in a 96-well plates and stimulated for 16-24 hours cultured in medium containing serial dilutions of Compound IX and other adjuvants. Secreted alkaline phosphatase activity was measured in the culture media using QUANTIBlue® assay (InvivoGen). The data was measured as enhancement of NF-kB above the PBS negative control. […] Compound IX was designed based on structural considerations of the reported atomic structure of MD2 and TLR4. […] Thus, it is expected that Compound IX and other illustrative compounds of the invention can be safely administered over a broad range of concentrations, which is highly desirable in the context of reproducibility of clinical outcomes among patients and for the safety in ranging a dose for adults and children. […]

TLR2 and TLR6 = target: T2, TLR2 and TLR6 (Homo sapiens, UniProt O60603+Q9Y2C9); test: NF-kB reporter (secreted alkaline phosphatase, QUANTIBlue) assay in HEK 293 cells expressing TLR2 and TLR6; format: cell-based; conditions: HEK 293 cells with TLR2, TLR6 and NF-kB reporter
T2 construct: host or cells: HEK 293
Experimental: as §1

[1] = system: ID83 antigen (Mycobacterium tuberculosis antigenic polypeptide)-specific IFN-γ secreting splenocytes; test: ELISPOT of IFN-γ cytokine responses of splenocytes from mice vaccinated with ID83 antigen plus adjuvant; format: in vivo, Mice (C57BL/6)
human whole blood cells = test: Induction of immunostimulatory cytokines (MIP-1-α and TNF-α ELISA) in human whole blood; format: cell-based; conditions: human whole blood from two donors, 1:5 serial dilutions, 20 hour incubation
Experimental: In this example, human whole blood cells were stimulated with Compound IX and ELISA assays were performed to detect the induction of immunostimulatory cytokines. Serial dilutions (1:5) of Compound IX and other adjuvants were performed with phosphate buffered saline in a 96 well plate for a total of 7 dilutions. 100 μl of freshly drawn human blood from two different donors were mixed and incubated with 100 μl of adjuvant dilutions. Following a 20 hour incubation, plates were centrifuged and supernatants (˜70 μl) were collected, avoiding red blood cells, and stored at −20° C. prior performing MIP-1-α and TNF-α ELISAs using standard biochemical procedures. […] Additionally, these primary donor results mimicked the results seen in human cell lines and extend these important findings in relation to the possible dose ranges and safety profiles for this compound.

T1 sequence (O00206 24-839): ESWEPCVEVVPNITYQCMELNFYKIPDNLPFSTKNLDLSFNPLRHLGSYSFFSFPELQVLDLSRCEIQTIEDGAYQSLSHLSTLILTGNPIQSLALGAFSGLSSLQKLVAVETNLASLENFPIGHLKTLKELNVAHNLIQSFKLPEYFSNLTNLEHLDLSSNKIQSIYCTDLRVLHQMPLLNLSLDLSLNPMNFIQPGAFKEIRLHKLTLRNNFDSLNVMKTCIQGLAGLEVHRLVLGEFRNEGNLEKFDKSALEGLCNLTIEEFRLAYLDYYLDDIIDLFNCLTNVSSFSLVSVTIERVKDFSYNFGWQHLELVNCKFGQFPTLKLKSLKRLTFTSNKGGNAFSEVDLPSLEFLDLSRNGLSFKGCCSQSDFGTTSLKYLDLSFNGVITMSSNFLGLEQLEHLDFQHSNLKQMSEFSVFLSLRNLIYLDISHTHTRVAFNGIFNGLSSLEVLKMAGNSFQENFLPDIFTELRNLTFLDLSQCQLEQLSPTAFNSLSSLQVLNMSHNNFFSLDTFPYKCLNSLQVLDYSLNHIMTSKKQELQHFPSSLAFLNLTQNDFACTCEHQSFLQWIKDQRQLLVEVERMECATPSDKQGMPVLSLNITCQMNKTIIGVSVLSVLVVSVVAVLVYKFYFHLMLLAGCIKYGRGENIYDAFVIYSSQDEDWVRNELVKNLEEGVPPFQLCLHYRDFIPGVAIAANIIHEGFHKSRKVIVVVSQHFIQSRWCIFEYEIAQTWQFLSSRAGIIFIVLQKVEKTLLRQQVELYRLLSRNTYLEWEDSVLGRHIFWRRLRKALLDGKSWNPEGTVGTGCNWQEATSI
T1 sequence (Q9Y6Y9 17-160 limits assumed): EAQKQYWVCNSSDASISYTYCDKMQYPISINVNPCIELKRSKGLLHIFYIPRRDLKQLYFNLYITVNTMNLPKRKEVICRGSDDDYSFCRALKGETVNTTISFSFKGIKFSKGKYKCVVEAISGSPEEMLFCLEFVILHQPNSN
T2 sequence (O60603 21-784): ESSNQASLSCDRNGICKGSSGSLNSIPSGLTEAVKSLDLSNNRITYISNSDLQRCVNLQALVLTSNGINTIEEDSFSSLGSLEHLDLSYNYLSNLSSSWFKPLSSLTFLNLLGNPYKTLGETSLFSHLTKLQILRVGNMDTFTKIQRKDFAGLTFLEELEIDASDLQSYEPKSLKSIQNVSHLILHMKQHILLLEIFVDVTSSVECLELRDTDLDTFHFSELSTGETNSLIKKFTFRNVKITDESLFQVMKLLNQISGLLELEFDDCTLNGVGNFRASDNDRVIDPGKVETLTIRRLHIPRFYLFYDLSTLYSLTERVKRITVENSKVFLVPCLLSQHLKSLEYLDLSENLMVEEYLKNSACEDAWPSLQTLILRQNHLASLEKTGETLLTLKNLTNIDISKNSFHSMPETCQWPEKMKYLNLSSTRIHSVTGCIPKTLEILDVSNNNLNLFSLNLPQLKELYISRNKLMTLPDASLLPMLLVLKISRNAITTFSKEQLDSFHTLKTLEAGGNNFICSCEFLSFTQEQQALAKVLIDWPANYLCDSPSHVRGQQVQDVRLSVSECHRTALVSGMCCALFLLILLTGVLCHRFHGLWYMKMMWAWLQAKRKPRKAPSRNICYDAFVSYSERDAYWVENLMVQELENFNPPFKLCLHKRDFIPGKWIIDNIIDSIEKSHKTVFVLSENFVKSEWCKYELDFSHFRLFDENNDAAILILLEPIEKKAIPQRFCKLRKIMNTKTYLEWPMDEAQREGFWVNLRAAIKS
T2 sequence (Q9Y2C9 32-796): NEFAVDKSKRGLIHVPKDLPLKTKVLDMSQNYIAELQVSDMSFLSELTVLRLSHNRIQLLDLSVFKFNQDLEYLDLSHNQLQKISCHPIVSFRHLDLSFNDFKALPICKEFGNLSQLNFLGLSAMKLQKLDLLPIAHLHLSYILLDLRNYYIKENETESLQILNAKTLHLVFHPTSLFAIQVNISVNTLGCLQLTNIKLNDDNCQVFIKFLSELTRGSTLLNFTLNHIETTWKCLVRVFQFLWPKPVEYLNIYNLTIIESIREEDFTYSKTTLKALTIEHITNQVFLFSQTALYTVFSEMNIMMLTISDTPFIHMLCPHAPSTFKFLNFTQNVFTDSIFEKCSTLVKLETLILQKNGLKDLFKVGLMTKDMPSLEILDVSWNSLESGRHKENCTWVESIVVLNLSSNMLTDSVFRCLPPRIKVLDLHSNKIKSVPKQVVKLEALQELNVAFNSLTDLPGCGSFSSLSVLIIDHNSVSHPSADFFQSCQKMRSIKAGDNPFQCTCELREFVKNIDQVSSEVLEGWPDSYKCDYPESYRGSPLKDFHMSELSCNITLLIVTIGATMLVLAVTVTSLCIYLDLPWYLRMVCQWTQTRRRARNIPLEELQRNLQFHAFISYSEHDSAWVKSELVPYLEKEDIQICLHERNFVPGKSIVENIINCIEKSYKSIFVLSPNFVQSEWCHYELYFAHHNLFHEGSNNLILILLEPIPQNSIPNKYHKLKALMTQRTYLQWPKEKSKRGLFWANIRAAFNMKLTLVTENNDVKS

For CCCCCCCCCCC[C@@H](O)CC(=O)N[C@@H]1C(O)OC(CO[C@@H]2OC(CO)[C@@H](OP(=O)(O)O)[C@H](OC(=O)C[C@@H](CCCCCCCCCCC)OC(=O)CCCCCCCCC)[C@@H]2NC(=O)C[C@@H](CCCCCCCCCCC)OC(=O)CCCCCCCCC)[C@@H](O)[C@@H]1OC(=O)C[C@H](O)CCCCCCCCCCC (stereo partly drawn) [Compound IX, (3R)-((2R,3S,4R,5S)-3-((R)-3-(DECANOYLOXY)TETRADECANAMIDO)-2-(((3S,4R,5S)-3,6-DIHYDROXY-5-((R)-3-HYDROXYTETRADECANAMIDO)-4-((R)-3-HYDROXYTETRADECANOYLOXY)TETRAHYDRO-2H-PYRAN-2-YL)METHOXY)-6-(HYDROXYMETHYL)-5-(PHOSPHONOOXY)TETRAHYDRO-2H-PYRAN-4-YL) 3-(DECANOYLOXY)TETRADECANOATE], the TLR4 agonist activity (TLR4, MD-2, and CD14; HEK 293 cells with TLR4, MD-2, CD14 and NF-kB reporter) was “clear TLR4 agonist activity”, the “shape of profile with increasing concentration” value (TLR4, MD-2, and CD14; serial dilutions) was “plateaus rapidly as concentrations are increased” and the “induction of TLR2” value (TLR2 and TLR6) was “did not appear to be associated with induction of TLR2”. For the same molecule, the “ID83 antigen-specific IFN-γ cytokine responses (IFN-γ secreting cells per million of splenocytes, ELISPOT)” value ([1]; C57BL/6 mice, 8 μg ID83 + 10 μg adjuvant in stable emulsion, three immunizations at three-week intervals, three weeks after the third immunization) was “induced robust ID83 antigen-specific cytokine responses”, the “type of antigen-specific immune response induced (conclusion)” value ([1]; Compound IX in a stable oil formulation with ID83) was “induced predominantly antigen-specific immune responses of the cellular type (T cell) associated with the protective TH1 phenotype” and the “immunostimulatory activity (induction of MIP-1-α and TNF-α)” value (human whole blood cells) was “has immunostimulatory activity in primary human blood cells”.
